Reference: patent publication US11981677B2, “Further substituted triazolo quinoxaline derivatives” (Grünenthal GmbH, priority 2018, dated 2024)

Biological target: T1, Glucocorticoid Receptor (Homo sapiens, UniProt P04150)
T1 construct: expressed in transfected cells
T1 sequence (P04150 524-758 limits assumed): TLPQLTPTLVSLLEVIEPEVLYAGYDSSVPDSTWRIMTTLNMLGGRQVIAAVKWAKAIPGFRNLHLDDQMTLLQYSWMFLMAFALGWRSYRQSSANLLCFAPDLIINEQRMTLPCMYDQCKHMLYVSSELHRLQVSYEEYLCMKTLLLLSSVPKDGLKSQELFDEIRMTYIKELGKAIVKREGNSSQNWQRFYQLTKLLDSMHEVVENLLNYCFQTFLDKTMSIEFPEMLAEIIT
Test: Agonistic mode of action on the glucocorticoid receptor (CHO-Gal4/GR luciferase reporter cell line)
Type: cell-based
Details: CHO-Gal4/GR luciferase reporter cells; observed in the agonistic assay or the antagonistic assay (mode not given); read-out: IC50 or EC50 range
Description: Potential selective glucocorticoid receptor modulators of this intervention can be tested for modulation of the activity of the glucocorticoid receptor using cell-based assays. These assays involve a Chinese hamster ovary (CHO) cell line which contains fragments of the glucocorticoid receptor as well as fusion proteins. The glucocorticoid receptor fragments used are capable of binding the ligand (e.g. beclomethasone) to identify molecules that compete for binding with glucocorticoid receptor ligands. In more detail, the glucocorticoid receptor ligand binding domain is fused to the DNA binding domain (DBD) of the transcriptionfactor GAL4 (GAL4 DBD-GR) and is stably integrated into a CHO cell line containing a GAL4-UAS-Luciferase reporter construct. […] After cell lysis the luminescence that is produced by luciferase after addition of the substrate is detected and EC50 or IC50 values can be calculated. Engagement of molecules which induce gene expression via glucocortocoid receptor binding to the DNA leads to expression of the luciferase gene under the control of the fusion protein GAL4 DBD-GR and therefore to a dose-dependent increase of the luminescence signal. Binding of molecules which repress beclomethasone-induced gene expression of the luciferase gene under the control of the fusion protein GAL4 DBD-GR leads to a dose-dependent reduction of the luminescence signal.
The reporter cell line CHO-Gal4/GR consisted of a chinese hamster ovary (CHO) cell line (Leibniz Institute DSMZ—German Collection of Microorganisms and Cell Cultures GmbH: ACC-110) containing a firefly luciferase gene under the control of the GR ligand binding domain fused to the DNA binding domain (DBD) of GAL4 (GAL4 DBD-GR) stably integrated into CHO cells. This cell line was established by stable transfection of CHO cells with a GAL4-UAS-Luciferase reporter construct. In a subsequent step the ligand binding domain of the GR cloned into pIRES2-EGFP-GAL4 containing the DNA binding domain of GAL4 from pFA-AT2 was transfected. This fusion construct activated firefly luciferase expression under the control of a multimerized GAL4 upstream activation sequence (UAS). The signal of the emitted luminescence was recorded by the FLIPR^TETRA. This allowed for specific detection of ligand-induced activation of the GR and therefore for the identification of compounds with agonistic properties. The GAL4/UAS reporter was premixed with a vector that constitutively expressed Renilla luciferase, which served as an internal positive control for transfection efficiency.
The complete culture medium for the assay was: • DMEM F-12 (1:1) MIXTURE (LONZA cat. No: BE04-687F/U1) 500 mL • 5 mL of 100 mM Sodium Pyruvate (LONZA cat. No: BE12-115E) • 25 mL of 7.5% Sodium Bicarbonate (LONZA cat. No BE17-613E) • 6.5 mL of 1 M Hepes (LONZA cat. No: BE17-737E) • 5 mL of 100× Penicillin/Streptomycin (LONZA cat. No DE17-602E) • 50 mL of Fetal Bovine Serum (Euroclone cat. No ECS 0180L) • 0.25 mL of 10 mg/mL Puromycin (InvivoGen cat.: ant-pr-1) • 0.5 mL of 100 mg/mL Zeocin (InvivoGen cat.: ant-zn-1)
Cryo-preserved CHO-Gal4/GR cells were suspended in complete medium and 5000 cells/25 μl/well were seeded into the wells of 384-well polystyrene assay plates (Thermo Scientific, cat. #4332) and cultured at 37° C., 5% CO2 and 95% humidity. After 24 hours growth medium was carefully removed and replaced by 30111 Opti-MEM (GIBCO, cat. #31985062) as assay buffer. To test the compounds an 8-point half-log compound dilution curve was generated in 100% DMSO starting from a 2 mM stock and compounds were then diluted 1:50 in Opti-MEM. 10111 of compounds were then added to the wells containing 30 μl Opti-MEM resulting in a final assay concentration range from 10 μM to 0.003 μM in 0.5% DMSO. Compounds were tested at 8 concentrations in quadruplicate data points. […] Finally, cells were lysed with 20 μl of Triton/Luciferin solution and the signal of the emitted luminescence was recorded at the FLIPR^TETRA for 2 minutes. […]

`Cc1nnc2n1-c1c(c(F)cc(-c3cc(F)cc4c3ccn4S(C)(=O)=O)c1C(F)F)NC2(C)C` [Example 455, 9-(difluoromethyl)-6-fluoro-8-(6-fluoro-1-(methylsulfonyl)-1H-indol-4-yl)-1,4,4-trimethyl-4,5-dihydro-[1,2,4]triazolo[4,3-a]quinoxaline] and `CCS(=O)(=O)n1ccc2c(-c3cc(F)c4c(c3C(F)F)-n3c(C)nnc3C(C)(C)N4)cc(F)cc21` [Example 460, 9-(Difluoro-methyl)-8-[1-(ethylsulfonyl)-6-fluoro-1H-indol-4-yl]-6-fluoro-1,4,4-trimethyl-5H-[1,2,4]triazolo[4,3-a]quinoxaline] cannot be ordered by IC50 or EC50 (antagonist or agonist mode, not stated per compound): < 0.1 µM for the first, < 0.1 µM for the second.

`Cc1c(-c2cccc3c2ccn3S(C)(=O)=O)cc(Cl)c2c1-n1c(C)nnc1C(C)(C)N2` [Example 456, 6-Chloro-1,4,4,9-tetramethyl-8-(1-methylsulfonyl-1H-indol-4-yl)-5H-[1,2,4]triazolo[4,3-a]quinoxaline] and `Cc1c(-c2cc(F)cc3c2ccn3S(C)(=O)=O)cc(Cl)c2c1-n1c(C)nnc1C(C)(C)N2` [Example 457, 6-Chloro-8-(6-fluoro-1-methylsulfonyl-1H-indol-4-yl)-1,4,4,9-tetramethyl-5H-[1,2,4]triazolo[4,3-a]quinoxaline] cannot be ordered by IC50 or EC50 (antagonist or agonist mode, not stated per compound): < 0.1 µM for the first, < 0.1 µM for the second.

`Cc1c(-c2cccc3c2cnn3S(C)(=O)=O)cc(Cl)c2c1-n1c(C)nnc1C(C)(C)N2` [Example 458, 6-Chloro-1,4,4,9-tetramethyl-8-(1-methylsulfonyl-1H-indazol-4-yl)-5H-[1,2,4]triazolo[4,3-a]quinoxaline] and `Cc1cc(-c2cc(F)c3c(c2C)-n2c(C)nnc2C(C)(C)N3)c2ccn(S(C)(=O)=O)c2c1` [Example 475, 6-Fluoro-1,4,4,9-tetramethyl-8-(6-methyl-1-methylsulfonyl-1H-indol-4-yl)-5H-[1,2,4]triazolo[4,3-a]quinoxaline] fall in the same range of IC50 or EC50 (antagonist or agonist mode, not stated per compound): 0.1 to 1 µM for the first, 0.1 to 1 µM for the second.

Compared with `Cc1nnc2n1-c1c(c(F)cc(-c3cccc4c3ccn4S(C)(=O)=O)c1C(F)F)NC2(C)C` [Example 459, 9-(Difluoro-methyl)-6-fluoro-1,4,4-trimethyl-8-(1-methylsulfonyl-1H-indol-4-yl)-5H-[1,2,4]triazolo[4,3-a]quinoxaline], `CCS(=O)(=O)n1ccc2c(-c3cc(F)c4c(c3C(F)F)-n3c(C)nnc3C(C)(C)N4)cccc21` [Example 461, 9-(Difluoro-methyl)-8-[1-(ethylsulfonyl)-1H-indol-4-yl]-6-fluoro-1,4,4-trimethyl-5H-[1,2,4]triazolo[4,3-a]quinoxaline] is higher in IC50 or EC50 (antagonist or agonist mode, not stated per compound): < 0.1 µM for the first, 0.1 to 1 µM for the second.

First: Cc1c[nH]c2c(-c3cc(F)c4c(c3C(F)F)-n3c(C)nnc3C(C)(C)N4)cc(F)cc12 [Example 462, 9-(Difluoro-methyl)-6-fluoro-8-(5-fluoro-3-methyl-1H-indol-7-yl)-1,4,4-trimethyl-5H-[1,2,4]triazolo[4,3-a]quinoxaline]
Second: Cc1n[nH]c2c(-c3cc(F)c4c(c3C(F)F)-n3c(C)nnc3C(C)(C)N4)cccc12 [Example 466, 9-(difluoromethyl)-6-fluoro-1,4,4-trimethyl-8-(3-methyl-1H-indazol-7-yl)-4,5-dihydro-[1,2,4]triazolo[4,3-a]quinoxaline]
The IC50 or EC50 (antagonist or agonist mode, not stated per compound) of the first is lower: < 0.1 µM for the first, 0.1 to 1 µM for the second.

Compared with `Cc1c(-c2cc(F)cc3c2ccn3CCO)cc(Cl)c2c1-n1c(C)nnc1C(C)(C)N2` [Example 463, 2-[4-(6-Chloro-1,4,4,9-tetramethyl-5H-[1,2,4]triazolo[4,3-a]quinoxalin-8-yl)-6-fluoro-1H-indol-1-yl]-EtOH], `CCc1c(-c2cc(F)cc3c2ccn3CCO)cc(F)c2c1-n1c(C)nnc1C(C)(C)N2` [Example 464, 2-[4-(9-Ethyl-6-fluoro-1,4,4-trimethyl-5H-[1,2,4]triazolo[4,3-a]quinoxalin-8-yl)-6-fluoro-1H-indol-1-yl]-EtOH] is higher in IC50 or EC50 (antagonist or agonist mode, not stated per compound): < 0.1 µM for the first, 0.1 to 1 µM for the second.

First: Cc1c(-c2cc(F)cc3[nH]ccc23)cc(F)c2c1-n1c(C)nnc1C(C)(C)N2 [Example 465, 6-fluoro-8-(6-fluoro-1H-indol-4-yl)-1,4,4,9-tetramethyl-4,5-dihydro-[1,2,4]triazolo[4,3-a]quinoxaline]
Second: COc1c(-c2cc(F)cc3[nH]ccc23)cc(F)c2c1-n1c(C)nnc1C(C)(C)N2 [Example 470, 6-Fluoro-8-(6-fluoro-1H-indol-4-yl)-9-methoxy-1,4,4-trimethyl-5H-[1,2,4]triazolo[4,3-a]quinoxaline]
The IC50 or EC50 (antagonist or agonist mode, not stated per compound) of the first is lower: < 0.1 µM for the first, 0.1 to 1 µM for the second.

First: Cc1nnc2n1-c1c(c(F)cc(-c3cc(F)cc4c3cnn4S(C)(=O)=O)c1C1CC1)NC2(C)C [Example 467, 9-Cyclopropyl-6-fluoro-8-(6-fluoro-1-methylsulfonyl-1H-indazol-4-yl)-1,4,4-trimethyl-5H-[1,2,4]triazolo[4,3-a]quinoxaline]
Second: Cc1nnc2n1-c1c(c(F)cc(-c3cc(F)cc4c3ccn4S(C)(=O)=O)c1C1CC1)NC2(C)C [Example 471, 9-Cyclopropyl-6-fluoro-8-(6-fluoro-1-methylsulfonyl-1H-indol-4-yl)-1,4,4-trimethyl-5H-[1,2,4]triazolo[4,3-a]quinoxaline]
The IC50 or EC50 (antagonist or agonist mode, not stated per compound) of the first is higher: 0.1 to 1 µM for the first, < 0.1 µM for the second.

First: Cc1c(-c2cccc3[nH]ccc23)cc(F)c2c1-n1c(C)nnc1C(C)(C)N2 [Example 468, 6-Fluoro-8-(1H-indol-4-yl)-1,4,4,9-tetramethyl-5H-[1,2,4]triazolo[4,3-a]quinoxaline]
Second: COc1c(-c2cccc3[nH]ccc23)cc(F)c2c1-n1c(C)nnc1C(C)(C)N2 [Example 469, 6-Fluoro-8-(1H-indol-4-yl)-9-methoxy-1,4,4-trimethyl-5H-[1,2,4]triazolo[4,3-a]quinoxaline]
The IC50 or EC50 (antagonist or agonist mode, not stated per compound) of the first is lower: < 0.1 µM for the first, 0.1 to 1 µM for the second.

`Cc1c[nH]c2c(-c3cc(F)c4c(c3C3CC3)-n3c(C)nnc3C(C)(C)N4)cccc12` [Example 472, 9-Cyclopropyl-6-fluoro-1,4,4-trimethyl-8-(3-methyl-1H-indol-7-yl)-5H-[1,2,4]triazolo[4,3-a]quinoxaline] and `Cc1nnc2n1-c1c(c(F)cc(-c3cccc4c3ccn4S(C)(=O)=O)c1C1CC1)NC2(C)C` [Example 474, 9-Cyclopropyl-6-fluoro-1,4,4-trimethyl-8-(1-methylsulfonyl-1H-indol-4-yl)-5H-[1,2,4]triazolo[4,3-a]quinoxaline] fall in the same range of IC50 or EC50 (antagonist or agonist mode, not stated per compound): 0.1 to 1 µM for the first, 0.1 to 1 µM for the second.

`COc1c(-c2cc(C(F)(F)F)cc3[nH]ccc23)cc(F)c2c1-n1c(C)nnc1C(C)(C)N2` [Example 473, 6-Fluoro-9-methoxy-1,4,4-trimethyl-8-[6-(trifluoromethyl)-1H-indol-4-yl]-5H-[1,2,4]triazolo[4,3-a]quinoxaline] showed an IC50 or EC50 (antagonist or agonist mode, not stated per compound) of 0.1 to 1 µM.
